According to patent publication US8658637B2, “Glucocorticoid mimetics, methods of making them, pharmaceutical compositions and uses thereof” (Boehringer Ingelheim International GmbH, priority 2006, dated 2014):

Assays:
[1] = system: IL-6 production in human foreskin fibroblast cells; experiment: Inhibition of IL-6 Production in Fibroblasts (Cell Assay for Transrepression); assay type: cell-based; details: IL-1 stimulated human foreskin fibroblasts; for EC50: read-out: agonistic activity (EC50) by inhibiting IL-6 production in Fibroblasts; for Emax: read-out: efficacy by inhibiting IL-6 production in Fibroblasts
Experimental: 2. Inhibition of IL-6 Production in Fibroblasts (Cell Assay for Transrepression)
Human foreskin fibroblast cells produce IL-6 in response to stimulation by proinflammatory cytokine IL-1.
Human foreskin fibroblast cells (ATCC Cat. No. CRL-2429) are plated on 96 well plates at 5,000 cells per well the day before use, in Iscove's Modified Dulbecco's Media (GibcoBRL Life Technologies Cat. No. 12440-053) supplemented with 10% charcoal filtered FBS (Clonetech Cat. No. SH30068) and Gentamycin (GibcoBRL Life Technologies Cat. No. 15710-064). On the next day, media in the wells is replaced with fresh media. Cells are treated with IL-1 (rhIL-1α, R&D Systems Cat. No. 200-LA) to a final concentration of 1 ng/mL, and with test compounds to final concentrations of 10^−5 M to 10^−8 M, in a total volume of 200 μL per well. Samples are done in duplicates. […] Positive control wells receive IL-1 only and represent maximum (or 100%) amount of IL-6 production. Plates are incubated at 37° C. overnight (15 to 18 hours), and supernatants are harvested at the end of incubation. IL-6 levels in the supernatants are determined by the ELISA kits for IL-6 (MedSystems Diagnostics GmbH, Vienna, Austria, Cat. No. BMS213TEN) according to manufacture's instructions. The extent of inhibition of IL-6 by test compounds is expressed in percentage relative to positive controls. IC50 values of test compounds are derived by non-linear curve fitting.

SMILES	melting point [°C]	EC50 [1] [nM]	Emax [1] [%]
C=CCn1cc(C(O)(c2ccc3c(cnn3-c3ccc(F)cc3)c2)C(F)(F)F)c2ccn(C)c(=O)c21 (stereo not drawn) [Example 75, 1-Allyl-6-methyl-3-{2,2,2-trifluoro-1-[1-(4-fluorophenyl)-1H-indazol-5-yl]-1-hydroxyethyl}-1,6-dihydropyrrolo[2,3-c]pyridin-7-one]	91 to 93	–	–
OC(c1cnc2c(cnn2-c2ccccc2)c1)(c1c[nH]c2ncccc12)C(F)(F)F (stereo not drawn)	137 to 141	–	–
NC(=O)Cn1cc(C(O)(c2ccc3c(cnn3-c3ccc(F)cc3)c2)C(F)(F)F)c2cccnc21 (stereo not drawn) [2-(3-{2,2,2-Trifluoro-1-[1-(4-fluorophenyl)-1H-indazol-5-yl]-1-hydroxyethyl}pyrrolo[2,3-b]pyridin-1-yl)acetamide]	–	≤ 1000	> 50
OC(c1ccc2c(cnn2-c2ccc(F)cc2)c1)(c1c[nH]c2ncccc12)C(F)(F)F (stereo not drawn) [2,2,2-Trifluoro-1-[1-(4-fluorophenyl)-1H-indazol-5-yl]-1-(1H-pyrrolo[2,3-b]pyridin-3-yl)ethanol]	–	≤ 1000	> 50
C[C@@H](O)Cn1cc(C(O)(c2ccc3c(cnn3-c3ccc(F)cc3)c2)C(F)(F)F)c2ccccc21 (stereo partly drawn) [(R)-1-(3-{2,2,2-Trifluoro-1-[1-(4-fluorophenyl)-1H-indazol-5-yl]-1-hydroxyethyl}indol-1-yl)propan-2-ol]	–	≤ 1000	> 50
OC(c1ccc2c(cnn2-c2ccc(F)cc2)c1)(c1cn(CCN2CCOCC2)c2ccccc12)C(F)(F)F (stereo not drawn) [2,2,2-Trifluoro-1-[1-(4-fluorophenyl)-1H-indazol-5-yl]-1-[1-(2-morpholin-4-ylethyl)-1H-indol-3-yl]ethanol]	–	≤ 1000	> 50
C=CCn1cc(C(O)(c2ccc3c(cnn3-c3ccc(F)cc3)c2)C(F)(F)F)cc1C(=O)OCC (stereo not drawn) [1-Allyl-4-{2,2,2-trifluoro-1-[1-(4-fluorophenyl)-1H-indazol-5-yl]-1-hydroxyethyl}-1H-pyrrole-2-carboxylic acid ethyl ester]	–	≤ 1000	> 50
OC(c1ccc2c(cnn2-c2ccc(F)cc2)c1)(c1c[nH]c2c(Cl)nccc12)C(F)(F)F (stereo not drawn) [1-(7-Chloro-1H-pyrrolo[2,3-c]pyridin-3-yl)-2,2,2-trifluoro-1-[1-(4-fluorophenyl)-1H-indazol-5-yl]ethanol]	–	≤ 1000	> 50
C=CCn1cc(C(O)(c2ccc3c(cnn3-c3ccc(F)cc3)c2)C(F)(F)F)c(C#N)n1 (stereo not drawn) [1-Allyl-4-{2,2,2-trifluoro-1-[1-(4-fluorophenyl)-1H-indazol-5-yl]-1-hydroxyethyl}-1H-pyrazole-3-carbonitrile]	–	≤ 1000	> 50
OCC(O)Cn1cc(C(O)(c2ccc3c(c2)nnn3-c2ccc(F)cc2)C(F)(F)F)c2ccccc21 (stereo not drawn) [3-(3-{2,2,2-Trifluoro-1-[1-(4-fluorophenyl)-1H-benzotriazol-5-yl]-1-hydroxyethyl}indol-1-yl)propane-1,2-diol]	–	≤ 1000	> 50
C=CCn1cc(C(O)(c2ccc3c(cnn3-c3ccc(F)cc3)c2)C(F)(F)F)c2ccn(C)c(=O)c21 (stereo not drawn) [1-Allyl-6-methyl-3-{2,2,2-trifluoro-1-[1-(4-fluorophenyl)-1H-indazol-5-yl]-1-hydroxyethyl}-1,6-dihydropyrrolo[2,3-c]pyridin-7-one]	–	≤ 1000	> 50
OCC(O)CCn1cc(C(O)(c2ccc3c(cnn3-c3ccc(F)cc3)c2)C(F)(F)F)c2ccccc21 (stereo not drawn) [4-(3-{2,2,2-Trifluoro-1-[1-(4-fluorophenyl)-1H-indazol-5-yl]-1-hydroxyethyl}indol-1-yl)-butane-1,2-diol]	–	≤ 1000	> 50
CCOC(=O)Cn1cc(C(O)(c2ccc3c(cnn3-c3ccc(F)cc3)c2)C(F)(F)F)c2ccccc21 (stereo not drawn) [(3-{2,2,2-Trifluoro-1-[1-(4-fluorophenyl)-1H-indazol-5-yl]-1-hydroxyethyl}indol-1-yl)acetic acid ethyl ester]	–	≤ 1000	> 50
OC(c1ccc2c(cnn2-c2ccc(F)cc2)c1)(c1cn(CC2CCCO2)c2ccccc12)C(F)(F)F (stereo not drawn) [2,2,2-Trifluoro-1-[1-(4-fluorophenyl)-1H-indazol-5-yl]-1-[1-(tetrahydro-furan-2-ylmethyl)-1H-indol-3-yl]ethanol]	–	≤ 1000	> 50
Cn1cc(C(O)(c2ccc3c(cnn3-c3cccnc3)c2)C(F)(F)F)c2ccccc21 (stereo not drawn) [2,2,2-Trifluoro-1-(1-methyl-1H-indol-3-yl)-1-(1-pyridin-3-yl-1H-indazol-5-yl)ethanol]	–	≤ 1000	> 50
OCC(O)Cn1cc(C(O)(c2ccc3c(cnn3-c3ccc(F)cc3)c2)C(F)(F)F)c2ccc(Br)cc21 (stereo not drawn) [3-(6-Bromo-3-{2,2,2-trifluoro-1-[1-(4-fluorophenyl)-1H-indazol-5-yl]-1-hydroxyethyl}indol-1-yl)propane-1,2-diol]	–	≤ 1000	> 50
